Values of other authors in patent US12350279B2, “Nasal rinse compositions and methods” (Campbell Holding Company LLC, priority 2022, dated 2025).

Key:
[1] = tested on: animal models of chronic asthma
[2] = tested on: allergic asthma animal model
[3] = animal models

C=C(C)[C@@H]1CCC(C)=C[C@H]1c1c(O)cc(CCCCC)cc1O [CBD, Cannabidiol]
effect on cytokines [1]: reduce relevant cytokines
effect on inflammatory and remodeling process, airway hyperreactivity [2]: reduced the inflammatory and remodeling process with decreased airway hyperreactivity
time to absorption after intranasal application [3]: ≤ 10 min
